Data as given in US20190216956A1, “COMPOSITIONS FOR RADIOTHERAPY AND USES THEREOF” (priority 2016, published 2019).
Several values for one entry are separate records, joined by “and”; a condition that tells them apart may be missing. Equal values may be shown once.

What was measured:
[1] = test system: NCI-28H cells; test: Cytotoxicity assay (MTS) of NCI-28H cells: doxorubicin, cisplatin, paclitaxel, talc, talc bound to drugs (Example 21); format: cell-based; conditions: for AVERAGE: cells + DOX / % survival from untreated by DOX cells / % survival (cells + drug) / Average readings: cells + drug / Average reading: cells + cisplatin / % survival from untreated cells (cells + cisplatin): NCI-28H cells; for AVERAGE: cells + DOX / Average readings: cells + drug / Average reading: cells + cisplatin: absorbance 490 nm
Method: Read absorbance (MTS assay) and calculate cells survival rate. Compare survival rate between each formulation.
1. Set up 3 cytotoxicity plates for Day 2 experiment: trypsinize NCI-28H cells (T-75 flask, passage 12): • Remove old medium, wash cells with 7 ml DPBS, remove DPBS, add 2 ml trypsin, incubate plates for 1-2′, when cells detached add 6 ml fresh medium, mix cells and medium. • Count cells under the microscope using the glass slide. […] If we need 200 wells, in each well will be 5,000 cells in 0.1 ml; so total we need 1,000,000 cells in 20 ml. […] In 50 ml Falcon tube, combine 16.6 ml fresh medium and 3.4 ml cells. Gently mix.
3. […] Final solution is 500 μL of 20 μM.
(§1) 1. Centrifuge tubes at 3200 rpm for 3 min. Take out supernatant.
6. Check the plate and start incubation at 37° C./5% CO2
3. Wash cells 1×300 μL media, remove final wash.

[2] = test system: NCI-2052H cells; test: Cytotoxicity assay (MTS) of NCI-2052H cells: bleomycin, mitomycin, doxorubicin, paclitaxel, talc, talc bound to drugs (Example 23); format: cell-based; conditions: for Average reading: cells + drug, paclitaxel: absorbance 490 nm
[3] = test system: NCI-28H cells; test: Cytotoxicity assay (MTS) of NCI-28H cells: carboplatin, mitomycin, gemcitabine, talc, talc bound to drugs (Example 22); conditions: for % survival from untreated cells: cells + drug, carboplatin / Average reading: cells + drug, carboplatin / % survival from untreated cells: cells + drug, gemcitabine / Average reading: cells + drug, gemcitabine: NCI-28H cells; for Average reading: cells + drug, carboplatin / Average reading: cells + drug, gemcitabine: absorbance 490 nm
Method: Read absorbance (MTS assay) and calculate cells survive rate. Compare survival rate
1. Set up 3 cytotoxicity plates for tomorrow experiment: trypsinize NCI-28H cells (T-75 flask, passage 12): • Remove old medium, wash cells with 7 ml DPBS, remove DPBS, add 2 ml trypsin, incubate plates for 1-2′, when cells detached add 6 ml fresh medium, mix cells and medium. • Count cells under the microscope using the glass slide. […] If we need 200 wells, in each well will be 5,000 cells in 0.1 ml; so total we need 1,000,000 cells in 20 ml.
2. […] Final solution is 500 μL of 500 μM carboplatin.
4. […] Final solution is 500 μL of 200 μM Gemcitabine.
as §1
3. Add 100 μL of each 8 preparations of diluted carboplatin (step 1 and 2) to the proper wells according to a plate layout.
4. Add 100 μL of each 8 preparations of diluted Gemcitabine (step 1, 2, 3) to the proper wells according to a plate layout.
6. Check the plate and start incubation at 37° C./5% CO2.
3. Wash all cells 1×300 μL DPBS, remove final wash.

## COc1cccc2c1C(=O)c1c(O)c3c(c(O)c1C2=O)C[C@@](O)(C(=O)CO)C[C@@H]3O[C@H]1C[C@H](N)[C@H](O)[C@H](C)O1 [DOX]
[1]; 125 nM DOX
  % survival NCI-28H cells after different treatment (compare to untreated cells): 70%
[1]; DOX 0.000064 μM
  AVERAGE: cells + DOX: 1.18
[1]; DOX 0.2 μM
  AVERAGE: cells + DOX: 0.89
[1]; DOX 1 μM
  AVERAGE: cells + DOX: 0.67
[1]; DOX 5 μM
  AVERAGE: cells + DOX: 0.63

## COc1cccc2c1C(=O)c1c(O)c3c(c(O)c1C2=O)C[C@@](O)(C(=O)CO)C[C@@H]3O[C@H]1C[C@H](N)[C@H](O)[C@H](C)O1 [Dox]
[1]; Dox 0.064 nM
  % survival from untreated by DOX cells: 86.3%
[1]; Dox 8 nM
  % survival from untreated by DOX cells: 83.4%
[1]; Dox 40 nM
  % survival from untreated by DOX cells: 77.4%
[1]; Dox 200 nM
  % survival from untreated by DOX cells: 65.0%
[1]; Dox 1000 nM
  % survival from untreated by DOX cells: 48.6%
[1]; Dox 5000 nM
  % survival from untreated by DOX cells: 46.2%

## CC(=O)O[C@H]1C(=O)[C@@]2(C)[C@H]([C@H](OC(=O)c3ccccc3)[C@]3(O)C[C@H](OC(=O)[C@H](O)[C@@H](NC(=O)c4ccccc4)c4ccccc4)C(C)=C1C3(C)C)[C@]1(OC(C)=O)CO[C@@H]1C[C@@H]2O [Paclitaxel]
[1]; Paclitaxel 0.13 nM
  % survival (cells + drug): 102.50%
  Average readings: cells + drug: 1.56
[1]; Paclitaxel 0.68 nM
  % survival (cells + drug): 86.98%
  Average readings: cells + drug: 1.33
[1]; Paclitaxel 3.5 nM
  % survival (cells + drug): 89.85%
  Average readings: cells + drug: 1.37
[1]; Paclitaxel 16 nM
  % survival (cells + drug): 84.47%
  Average readings: cells + drug: 1.29
[1]; Paclitaxel 80 nM
  % survival (cells + drug): 71.81%
  Average readings: cells + drug: 1.10
[1]; Paclitaxel 400 nM
  % survival (cells + drug): 66.39%
[1]; Paclitaxel 2000 nM
  % survival (cells + drug): 62.43%
[1]; Paclitaxel 10,000 nM
  % survival (cells + drug): 60.71%
[2]; Paclitaxel 0.256 nM
  Average reading: cells + drug, paclitaxel: 1.4273
[2]; Paclitaxel 6.4 nM
  Average reading: cells + drug, paclitaxel: 1.54
[2]; Paclitaxel 32 nM
  Average reading: cells + drug, paclitaxel: 0.5818
[2]; Paclitaxel 160 nM
  Average reading: cells + drug, paclitaxel: 0.4361
[2]; Paclitaxel 800 nM
  Average reading: cells + drug, paclitaxel: 0.4326
[2]; Paclitaxel 4000 nM
  Average reading: cells + drug, paclitaxel: 0.553
[2]; Paclitaxel 20,000 nM
  Average reading: cells + drug, paclitaxel: 0.1647
[2]; paclitaxel 0.256 (nM per Table 97)
  % survival from untreated cells: 83.84%
[2]; paclitaxel 1.28 (nM per Table 97)
  % survival from untreated cells: 93.24%
[2]; paclitaxel 6.4 (nM per Table 97)
  % survival from untreated cells: 90.43%
[2]; paclitaxel 32 (nM per Table 97)
  % survival from untreated cells: 34.17%
[2]; paclitaxel 160 (nM per Table 97)
  % survival from untreated cells: 25.61%
[2]; paclitaxel 800 (nM per Table 97)
  % survival from untreated cells: 25.41%
[2]; paclitaxel 4000 (nM per Table 97)
  % survival from untreated cells: 32.48%
[2]; paclitaxel 20,000 (nM per Table 97)
  % survival from untreated cells: 9.67%

## N.N.O=C([O-])C1(C(=O)[O-])CCC1.[Pt+2] [carboplatin]
[3]; carboplatin 0.006 μM
  % survival from untreated cells: cells + drug, carboplatin: 90.84% and 94.28%
  Average reading: cells + drug, carboplatin: 1.504
[3]; carboplatin 0.8 μM
  % survival from untreated cells: cells + drug, carboplatin: 85.98% and 87.53%
  Average reading: cells + drug, carboplatin: 1.4238
[3]; carboplatin 4 μM
  % survival from untreated cells: cells + drug, carboplatin: 96.93% and 93.62%
  Average reading: cells + drug, carboplatin: 1.605
[3]; carboplatin 20 μM
  % survival from untreated cells: cells + drug, carboplatin: 104.81% and 99.20%
  Average reading: cells + drug, carboplatin: 1.7355
[3]; carboplatin 100 μM
  % survival from untreated cells: cells + drug, carboplatin: 83.82% and 79.53%
  Average reading: cells + drug, carboplatin: 1.388
[3]; carboplatin 500 μM
  % survival from untreated cells: cells + drug, carboplatin: 37.38% and 35.14%
  Average reading: cells + drug, carboplatin: 0.6189

## N.N.[Cl][Pt][Cl] [cisplatin]
[1]; Cisplatin 0.0013 μM
  Average reading: cells + cisplatin: 1.37
[1]; Cisplatin 0.0064 μM
  Average reading: cells + cisplatin: 1.19
[1]; Cisplatin 0.8 μM
  Average reading: cells + cisplatin: 1.23
[1]; Cisplatin 4 μM
  Average reading: cells + cisplatin: 1.18
[1]; Cisplatin 20 μM
  Average reading: cells + cisplatin: 0.48
[1]; Cisplatin 100 μM
  Average reading: cells + cisplatin: 0.59
[1]; cisplatin 0.0013 (μM per Table 64)
  % survival from untreated cells (cells + cisplatin): 91.07%
[1]; cisplatin 0.0064 (μM per Table 64)
  % survival from untreated cells (cells + cisplatin): 79.21%
[1]; cisplatin 0.032 (μM per Table 64)
  % survival from untreated cells (cells + cisplatin): 76.66%
[1]; cisplatin 0.16 (μM per Table 64)
  % survival from untreated cells (cells + cisplatin): 79.74%
[1]; cisplatin 0.8 (μM per Table 64)
  % survival from untreated cells (cells + cisplatin): 82.09%
[1]; cisplatin 4 (μM per Table 64)
  % survival from untreated cells (cells + cisplatin): 78.41%
[1]; cisplatin 20 (μM per Table 64)
  % survival from untreated cells (cells + cisplatin): 31.99%
[1]; cisplatin 100 (μM per Table 64)
  % survival from untreated cells (cells + cisplatin): 39.35%

## Nc1ccn([C@@H]2O[C@H](CO)[C@@H](O)C2(F)F)c(=O)n1 [gemcitabine]
[3]
  cytotoxic effect on NCI-28H cells (comparison): clear cytotoxic effect
[3]; gemcitabine 0.0026 μM
  % survival from untreated cells: cells + drug, gemcitabine: 114.61%
  Average reading: cells + drug, gemcitabine: 2.034
[3]; gemcitabine 0.013 μM
  % survival from untreated cells: cells + drug, gemcitabine: 107.85%
  Average reading: cells + drug, gemcitabine: 1.914
[3]; gemcitabine 0.064 μM
  % survival from untreated cells: cells + drug, gemcitabine: 80.60%
  Average reading: cells + drug, gemcitabine: 1.43
[3]; gemcitabine 8 μM
  % survival from untreated cells: cells + drug, gemcitabine: 56.58%
  Average reading: cells + drug, gemcitabine: 1.004
[3]; gemcitabine 40 μM
  % survival from untreated cells: cells + drug, gemcitabine: 60.09%
  Average reading: cells + drug, gemcitabine: 1.0663
[3]; gemcitabine 200 μM
  % survival from untreated cells: cells + drug, gemcitabine: 52.70%
  Average reading: cells + drug, gemcitabine: 0.9352

## talc
[3]
  cytotoxic effect on NCI-28H cells (comparison): clear cytotoxic effect
